{"source": "patent US20040121316A1", "about": "(priority 2002, published 2004)", "key": {"in vitro": {"test": "in vitro", "details": "human"}, "mutant HIV-1 I84V/L90M": {"test_system": "mutant HIV-1 I84V/L90M", "test": "Resistance Evaluation, I84V/L90M fold change", "type": "cell-based", "details": "mutant I84V/L90M vs wild type"}, "HIV-1 46I50V": {"test_system": "HIV-1 46I50V", "test": "microbe, parasite or virus in culture", "type": "cell-based"}, "HIV-1 30N82I88D": {"test_system": "HIV-1 30N82I88D", "test": "microbe, parasite or virus in culture", "type": "cell-based"}, "HIV-1 48V54V82A": {"test_system": "HIV-1 48V54V82A", "test": "microbe, parasite or virus in culture", "type": "cell-based"}, "HIV-1 48V82A90M": {"test_system": "HIV-1 48V82A90M", "test": "microbe, parasite or virus in culture", "type": "cell-based"}, "HIV-1 84V90M": {"test_system": "HIV-1 84V90M", "test": "microbe, parasite or virus in culture", "type": "cell-based"}, "84V90M HIV protease": {"target": "84V90M HIV protease (Human immunodeficiency virus type 1 group M subtype B, UniProt P04585, I572V/L578M)", "test": "biochemical", "set-up": "species or system HIV-1"}, "HIV-1 48V54V82S": {"test_system": "HIV-1 48V54V82S", "test": "microbe, parasite or virus in culture", "type": "cell-based"}, "[1]": {"test_system": "recombinant HIV-1 strains with resistance mutations in the protease gene", "test": "Cross-Resistance Profile Assay, whole panel", "type": "cell-based", "details": "{}"}, "[2]": {"test_system": "wild-type HIV-1 strain IIIB", "test": "microbe, parasite or virus in culture", "type": "cell-based", "details": "Human immunodeficiency virus 1, IIIB"}, "in vivo": {"test": "in vivo", "details": "beagle, dog, po"}, "WT HIV-1": {"test_system": "WT HIV-1", "test": "microbe, parasite or virus in culture", "type": "cell-based", "details": "read-out: Cell-based assay (MT-4) EC50/nM WT"}, "WT HIV protease": {"target": "T1, WT HIV protease (Human immunodeficiency virus type 1 group M subtype B, UniProt P04585)", "T1 construct": "synthetic hexapeptide substrate cleavage by HIV-1 protease", "test": "biochemical", "set-up": "species or system HIV-1", "details": "read-out: WT IC50/nM"}, "[3]": {"target": "T2, recombinant HIV-1 protease (Human immunodeficiency virus type 1 group M subtype B, UniProt P04585)", "T2 construct": "Enzyme: recombinant HIV-1 protease expressed in E.Coli; purchased Bachem California, Inc. H-9040; host or cells: E. coli", "test": "biochemical", "details": "read-out: Ki"}, "[4]": {"details": "Human immunodeficiency virus 1, read-out: Cell-based assay (MT-4) EC50/nM 46I50V"}, "[5]": {"details": "Human immunodeficiency virus 1, read-out: Cell-based assay (MT-4) EC50/nM 30N82I88D"}, "[6]": {"details": "Human immunodeficiency virus 1, read-out: Cell-based assay (MT-4) EC50/nM 48V54V82A"}, "[7]": {"details": "Human immunodeficiency virus 1, read-out: Cell-based assay (MT-4) EC50/nM 48V82A90M"}, "[8]": {"details": "Human immunodeficiency virus 1, read-out: Cell-based assay (MT-4) EC50/nM 84V90M"}, "[9]": {"details": "Human immunodeficiency virus 1, read-out: Cell-based assay (MT-4) EC50/nM 48V54V82S"}, "[10]": {"details": "MT2, 120 h, read-out: Anti-HIV-1 Cell Culture Activity EC50"}, "[11]": {"details": "MT-4, 46I50V, read-out: Cell-based assay (MT-4) EC50/nM 46I50V"}, "[12]": {"details": "MT-4, 30N82I88D, read-out: Cell-based assay (MT-4) EC50/nM 30N82I88D"}, "[13]": {"details": "MT-4, 48V54V82A, read-out: Cell-based assay (MT-4) EC50/nM 48V54V82A"}}, "note": "Like-named read-outs stand apart in the source and are kept apart here."}
{"smiles": "CC(C)CN(CC(O)C(Cc1ccc(OCP(=O)(OCc2ccccc2)OCc2ccccc2)cc1)NC(=O)OC1COC2OCCC12)S(=O)(=O)c1ccc(OC(F)(F)F)cc1", "note": "(stereo not shown)", "values": [{"measurement": "CC50", "setting": "in vitro", "value": "5000 to 50000", "unit": "nM"}, {"measurement": "I84V/L90M fold change", "setting": "mutant HIV-1 I84V/L90M", "value": "+ (>3 to ≦10)"}]}
{"smiles": "CCOP(=O)(COc1ccc(CC2C(O)C(O)C(Cc3ccccc3)N(Cc3ccccc3)C(=O)N2Cc2ccccc2)cc1)OCC", "note": "(stereo not shown)", "values": [{"measurement": "EC50", "setting": "HIV-1 46I50V; [4]", "value": 589, "unit": "nM"}, {"measurement": "EC50", "setting": "HIV-1 30N82I88D; [5]", "value": 293, "unit": "nM"}, {"measurement": "EC50", "setting": "HIV-1 48V54V82A; [6]", "value": 1440, "unit": "nM"}, {"measurement": "EC50", "setting": "HIV-1 48V82A90M; [7]", "value": 3290, "unit": "nM"}, {"measurement": "EC50", "setting": "HIV-1 84V90M; [8]", "value": 2460, "unit": "nM"}, {"measurement": "IC50", "setting": "84V90M HIV protease", "value": 48, "unit": "nM"}, {"measurement": "EC50", "setting": "HIV-1 48V54V82S; [9]", "value": 1900, "unit": "nM"}]}
{"smiles": "CC(C)CN(C[C@@H](O)[C@H](Cc1ccccc1)NC(=O)O[C@H]1CCOC1)S(=O)(=O)c1ccc(N)cc1", "note": "[Amprenavir, reference compound]", "values": [{"measurement": "Total No. of Resistant Viruses", "setting": "[1]", "value": 4}, {"measurement": "EC50", "setting": "[2]", "value": "< 50", "unit": "nM"}, {"measurement": "EC50", "setting": "[2]; [10]", "value": "16 ± 2.2", "unit": "nM"}, {"measurement": "AUC", "setting": "in vivo", "value": 102, "unit": "µM·h"}, {"measurement": "half-life", "setting": "in vivo", "value": 1.7, "unit": "h"}, {"measurement": "CC50", "setting": "in vitro", "value": "> 50000", "unit": "nM"}]}
{"smiles": "Nc1n[nH]c2ccc(CN3C(=O)N(CCCCO)C(Cc4ccccc4)C(O)C(O)C3Cc3ccccc3)cc12", "note": "(stereo not shown) [CH2OH]", "values": [{"measurement": "EC50", "setting": "WT HIV-1", "value": 253, "unit": "nM"}, {"measurement": "EC50", "setting": "HIV-1 46I50V; [11]", "value": 524, "unit": "nM"}, {"measurement": "EC50", "setting": "HIV-1 30N82I88D; [12]", "value": 486, "unit": "nM"}, {"measurement": "EC50", "setting": "HIV-1 48V54V82A; [13]", "value": 413, "unit": "nM"}, {"measurement": "EC50", "setting": "HIV-1 84V90M; MT-4, 84V90M, read-out: Cell-based assay (MT-4) EC50/nM 84V90M", "value": 1110, "unit": "nM"}, {"measurement": "IC50", "setting": "84V90M HIV protease; Enzymatic assay, 84V90M, read-out: 84V90M IC50/nM", "value": 31, "unit": "nM"}, {"measurement": "IC50", "setting": "WT HIV protease", "value": 2.8, "unit": "nM"}, {"measurement": "Ki", "setting": "[3]", "value": 0.017, "unit": "nM"}]}
{"smiles": "CCOP(=O)(COc1ccc(C[C@H](NC(=O)O[C@H]2CO[C@H]3OCC[C@H]32)[C@H](O)CN(CC(C)C)S(=O)(=O)c2ccc(OC)cc2)cc1)OCC", "note": "[Compound 13]", "values": [{"measurement": "EC50", "setting": "[2]; [10]", "value": 3, "unit": "nM"}, {"measurement": "CC50", "setting": "in vitro", "value": 50000, "unit": "nM"}]}
{"smiles": "CCCCN1C(=O)N(Cc2ccc3[nH]nc(N)c3c2)C(Cc2ccccc2)C(O)C(O)C1Cc1ccccc1", "note": "(stereo not shown) [DMP-851]", "values": [{"measurement": "EC50", "setting": "WT HIV-1", "value": 54, "unit": "nM"}, {"measurement": "EC50", "setting": "HIV-1 46I50V; [11]", "value": 17, "unit": "nM"}, {"measurement": "EC50", "setting": "HIV-1 30N82I88D; [12]", "value": 69, "unit": "nM"}, {"measurement": "EC50", "setting": "HIV-1 48V54V82A; [13]", "value": 33, "unit": "nM"}, {"measurement": "EC50", "setting": "HIV-1 48V82A90M; MT-4, 48V82A90M, read-out: Cell-based assay (MT-4) EC50/nM 48V82A90M", "value": 22, "unit": "nM"}, {"measurement": "EC50", "setting": "HIV-1 48V54V82S; MT-4, 48V54V82S, read-out: Cell-based assay (MT-4) EC50/nM 48V54V82S", "value": 30, "unit": "nM"}]}
{"smiles": "COc1ccc(S(=O)(=O)N(CC(C)C)C[C@@H](O)[C@H](Cc2ccccc2)NC(=O)O[C@H]2CO[C@H]3OCC[C@H]32)cc1", "note": "[Example 94-003, reference compound]", "values": [{"measurement": "Total No. of Resistant Viruses", "setting": "[1]", "value": 3}, {"measurement": "EC50", "setting": "[2]", "value": "< 50", "unit": "nM"}, {"measurement": "EC50", "setting": "[2]; [10]", "value": "1.4 ± 0.3", "unit": "nM"}, {"measurement": "CC50", "setting": "in vitro", "value": "5000 to 50000", "unit": "nM"}]}
{"smiles": "CCOP(=O)(COc1ccc(CC2C(O)C(O)C(Cc3ccccc3)N(Cc3cccc(N)c3)C(=O)N2Cc2cccc(N)c2)cc1)OCC", "note": "(stereo not shown) [H, Ph-mNH2, OCH2PO3Et2]", "values": [{"measurement": "EC50", "setting": "HIV-1 46I50V; [4]", "value": 46, "unit": "nM"}, {"measurement": "EC50", "setting": "HIV-1 30N82I88D; [5]", "value": 16, "unit": "nM"}, {"measurement": "EC50", "setting": "HIV-1 48V54V82A; [6]", "value": 168, "unit": "nM"}, {"measurement": "EC50", "setting": "HIV-1 48V82A90M; [7]", "value": 74, "unit": "nM"}, {"measurement": "EC50", "setting": "HIV-1 84V90M; [8]", "value": 328, "unit": "nM"}, {"measurement": "EC50", "setting": "HIV-1 48V54V82S; [9]", "value": 146, "unit": "nM"}]}
{"smiles": "CCOP(=O)(COc1ccc(CC2C(O)C(O)C(Cc3ccccc3)N(Cc3ccc(O)cc3)C(=O)N2Cc2ccc(O)cc2)cc1)OCC", "note": "(stereo not shown) [H, Ph-pOH, OCH2PO3Et2]", "values": [{"measurement": "EC50", "setting": "HIV-1 46I50V; [4]", "value": 144, "unit": "nM"}, {"measurement": "EC50", "setting": "HIV-1 30N82I88D; [5]", "value": 90, "unit": "nM"}, {"measurement": "EC50", "setting": "HIV-1 48V54V82A; [6]", "value": 128, "unit": "nM"}, {"measurement": "EC50", "setting": "HIV-1 48V82A90M; [7]", "value": 126, "unit": "nM"}, {"measurement": "EC50", "setting": "HIV-1 48V54V82S; [9]", "value": 198, "unit": "nM"}]}
{"smiles": "Cc1c(O)cccc1C(=O)N[C@@H](CSc1ccccc1)[C@H](O)CN1C[C@H]2CCCC[C@H]2C[C@H]1C(=O)NC(C)(C)C", "note": "[Nelfinavir]", "values": [{"measurement": "Total No. of Resistant Viruses", "setting": "[1]", "value": 9}, {"measurement": "EC50", "setting": "[2]", "value": "< 50", "unit": "nM"}, {"measurement": "AUC", "setting": "in vivo", "value": 33, "unit": "µM·h"}, {"measurement": "half-life", "setting": "in vivo", "value": 3, "unit": "h"}, {"measurement": "distribution between cytosol and membrane fractions", "setting": "quiescent PBMC", "value": "present only in the membrane fractions"}]}
{"smiles": "CCOP(=O)(COc1ccc(CC2C(O)C(O)C(Cc3ccc(OC)cc3)N(Cc3cccc(N)c3)C(=O)N2Cc2cccc(N)c2)cc1)OCC", "note": "(stereo not shown) [OCH3, Ph-mNH2, OCH2PO3Et2]", "values": [{"measurement": "EC50", "setting": "HIV-1 46I50V; [4]", "value": 36, "unit": "nM"}, {"measurement": "EC50", "setting": "HIV-1 30N82I88D; [5]", "value": 18, "unit": "nM"}, {"measurement": "EC50", "setting": "HIV-1 48V54V82A; [6]", "value": 202, "unit": "nM"}, {"measurement": "EC50", "setting": "HIV-1 48V82A90M; [7]", "value": 102, "unit": "nM"}, {"measurement": "EC50", "setting": "HIV-1 84V90M; [8]", "value": 535, "unit": "nM"}, {"measurement": "IC50", "setting": "84V90M HIV protease", "value": 56, "unit": "nM"}, {"measurement": "EC50", "setting": "HIV-1 48V54V82S; [9]", "value": 117, "unit": "nM"}]}
